According to paper PMC5218480 (PLoS ONE, 2017):

System: MV-4-11 cells
Experiment: Gene expression microarray analysis (Affymetrix PrimeView) and GSEA
Assay type: cell-based, human
Design: RFU PODN (11730768_x_at) / Fold change /veh PODN (11730768_x_at) / RFU LINC00158 (11744669_a_at) / Fold change /veh LINC00158 (11744669_a_at) / RFU DUSP10 (11751237_a_at) / Fold change /veh DUSP10 (11751237_a_at) / RFU ID3 (11757404_x_at) / Fold change /veh ID3 (11757404_x_at) / RFU PLEKHG5 (11737974_s_at) / Fold change /veh PLEKHG5 (11737974_s_at) / RFU LRRC4B (11730491_at) / Fold change /veh LRRC4B (11730491_at) / RFU GIMAP4 (11747438_a_at) / Fold change /veh GIMAP4 (11747438_a_at) / RFU KRT8 (11758183_x_at) / Fold change /veh KRT8 (11758183_x_at) / RFU CNN1 (11734310_a_at) / Fold change /veh CNN1 (11734310_a_at) / RFU VPS37D (11726825_at) / Fold change /veh VPS37D (11726825_at) / RFU C10orf10 (11716522_x_at) / Fold change /veh C10orf10 (11716522_x_at) / RFU KIR2DL2 /// KIR2DL4 /// KIR2DL5A /// KIR2DL5B /// KIR2DS1 /// KIR2DS2 /// KIR2DS3 /// KIR2DS4 /// KIR3DL3 /// KIR3DL3 /// KIR3DS1 (11738374_at) / Fold change /veh KIR2DL2 /// KIR2DL4 /// KIR2DL5A /// KIR2DL5B /// KIR2DS1 /// KIR2DS2 /// KIR2DS3 /// KIR2DS4 /// KIR3DL3 /// KIR3DL3 /// KIR3DS1 (11738374_at) / RFU C1QL1 (11718748_at) / Fold change /veh C1QL1 (11718748_at) / RFU TMPRSS4 (11747572_a_at) / Fold change /veh TMPRSS4 (11747572_a_at) / RFU HAMP (11756126_x_at) / Fold change /veh HAMP (11756126_x_at) / RFU RNFT2 (11725882_a_at) / Fold change /veh RNFT2 (11725882_a_at) / RFU NR4A2 (11747474_a_at) / Fold change /veh NR4A2 (11747474_a_at) / RFU ABCC12 (11746883_a_at) / Fold change /veh ABCC12 (11746883_a_at) / RFU TMEM136 (11760407_x_at) / Fold change /veh TMEM136 (11760407_x_at) / RFU CLDN22 /// WWC2 (11732394_at) / Fold change /veh CLDN22 /// WWC2 (11732394_at) / RFU HLA-DPB1 (11760878_x_at) / Fold change /veh HLA-DPB1 (11760878_x_at) / RFU SPINT1 (11716480_a_at) / Fold change /veh SPINT1 (11716480_a_at) / RFU GAP43 (11754022_s_at) / Fold change /veh GAP43 (11754022_s_at) / RFU A4GNT (11735810_at) / Fold change /veh A4GNT (11735810_at) / RFU PRB3 (11715151_x_at) / Fold change /veh PRB3 (11715151_x_at) / RFU TUBB4B (11761932_at) / Fold change /veh TUBB4B (11761932_at) / RFU CAPN14 (11732068_a_at) / Fold change /veh CAPN14 (11732068_a_at) / RFU TMCC2 (11721928_a_at) / Fold change /veh TMCC2 (11721928_a_at) / RFU IRGQ (11745062_a_at) / Fold change /veh IRGQ (11745062_a_at) / RFU FAM174B (11720279_a_at) / Fold change /veh FAM174B (11720279_a_at) / RFU TMPRSS4 (11748680_a_at) / Fold change /veh TMPRSS4 (11748680_a_at) / RFU FAM212B (11763350_a_at) / Fold change /veh FAM212B (11763350_a_at) / RFU PLEKHG5 (11743358_a_at) / Fold change /veh PLEKHG5 (11743358_a_at) / RFU ZSCAN30 (11745921_a_at) / Fold change /veh ZSCAN30 (11745921_a_at) / RFU CMKLR1 (11741424_a_at) / Fold change /veh CMKLR1 (11741424_a_at) / RFU LOC101060620 /// MAPK8IP1 (11723275_at) / Fold change /veh LOC101060620 /// MAPK8IP1 (11723275_at) / RFU SPTSSB (11747773_x_at) / Fold change /veh SPTSSB (11747773_x_at) / RFU PRSS12 (11739890_at) / Fold change /veh PRSS12 (11739890_at) / RFU BIN1 (11741810_x_at) / Fold change /veh BIN1 (11741810_x_at) / RFU WNT11 (11732464_a_at) / Fold change /veh WNT11 (11732464_a_at) / RFU C10orf10 (11716521_a_at) / Fold change /veh C10orf10 (11716521_a_at) / RFU C5orf56 (11738089_at) / Fold change /veh C5orf56 (11738089_at) / RFU CYB561 (11721691_x_at) / Fold change /veh CYB561 (11721691_x_at) / RFU ANKRD19P (11752326_a_at) / Fold change /veh ANKRD19P (11752326_a_at) / RFU OR2T12 /// OR2T33 /// OR2T8 (11738714_s_at) / Fold change /veh OR2T12 /// OR2T33 /// OR2T8 (11738714_s_at) / RFU VCAN (11748164_a_at) / Fold change /veh VCAN (11748164_a_at) / RFU JSRP1 (11732532_at) / Fold change /veh JSRP1 (11732532_at) / RFU KRTAP10-11 (11738290_x_at) / Fold change /veh KRTAP10-11 (11738290_x_at) / RFU MYO3A (11730013_a_at) / Fold change /veh MYO3A (11730013_a_at) / RFU EBF3 (11725865_a_at) / Fold change /veh EBF3 (11725865_a_at) / RFU CAMK2N1 (11719241_x_at) / Fold change /veh CAMK2N1 (11719241_x_at) / RFU C5orf56 (11738088_a_at) / Fold change /veh C5orf56 (11738088_a_at) / RFU OLFML3 (11715873_a_at) / Fold change /veh OLFML3 (11715873_a_at) / RFU LOC100653217 /// NTM (11731650_a_at) / Fold change /veh LOC100653217 /// NTM (11731650_a_at) / RFU MAPK11 (11762145_a_at) / Fold change /veh MAPK11 (11762145_a_at) / RFU FIZ1 (11724087_x_at) / Fold change /veh FIZ1 (11724087_x_at) / RFU OASL (11726364_x_at) / Fold change /veh OASL (11726364_x_at) / RFU SOX15 (11748057_x_at) / Fold change /veh SOX15 (11748057_x_at) / RFU CD79A (11719716_a_at) / Fold change /veh CD79A (11719716_a_at) / RFU HIST1H1D (11736915_at) / Fold change /veh HIST1H1D (11736915_at) / RFU CASKIN2 (11723855_a_at) / Fold change /veh CASKIN2 (11723855_a_at) / RFU LOC730098 (11760151_x_at) / Fold change /veh LOC730098 (11760151_x_at) / RFU OR4N2 (11742367_at) / Fold change /veh OR4N2 (11742367_at) / RFU PRRT2 (11749266_a_at) / Fold change /veh PRRT2 (11749266_a_at) / RFU SNX32 (11753110_a_at) / Fold change /veh SNX32 (11753110_a_at) / RFU CDHR5 (11726645_a_at) / Fold change /veh CDHR5 (11726645_a_at) / RFU RCAN1 (11760418_a_at) / Fold change /veh RCAN1 (11760418_a_at) / RFU FAM167A (11723789_a_at) / Fold change /veh FAM167A (11723789_a_at) / RFU FAM26E (11764081_at) / Fold change /veh FAM26E (11764081_at) / RFU ISYNA1 (11749810_s_at) / Fold change /veh ISYNA1 (11749810_s_at) / RFU ACY1 (11761880_at) / Fold change /veh ACY1 (11761880_at) / RFU 11764098_at / Fold change /veh 11764098_at / RFU SAMD14 (11745864_x_at) / Fold change /veh SAMD14 (11745864_x_at) / RFU NPB (11741838_a_at) / Fold change /veh NPB (11741838_a_at) / RFU TMPRSS6 (11731388_a_at) / Fold change /veh TMPRSS6 (11731388_a_at) / RFU KRTAP10-2 (11738614_at) / Fold change /veh KRTAP10-2 (11738614_at) / RFU ARHGAP8 /// PRR5-ARHGAP8 (11727945_x_at) / Fold change /veh ARHGAP8 /// PRR5-ARHGAP8 (11727945_x_at) / RFU KRTAP5-7 /// NADSYN1 (11734609_at) / Fold change /veh KRTAP5-7 /// NADSYN1 (11734609_at) / RFU RASL12 (11751679_a_at) / Fold change /veh RASL12 (11751679_a_at) / RFU CDKN2B (11736163_a_at) / Fold change /veh CDKN2B (11736163_a_at) / RFU PRF1 (11729649_at) / Fold change /veh PRF1 (11729649_at) / RFU, ZNF638 /// ZNF638-IT1 / Fold change vs veh, ZNF638 /// ZNF638-IT1 / RFU, PANK3 / Fold change vs veh, PANK3 / RFU, SH3YL1 / Fold change vs veh, SH3YL1 / RFU, ZEB2 / Fold change vs veh, ZEB2 / RFU, NRIP1 / Fold change vs veh, NRIP1 / RFU, PTTG1IP / Fold change vs veh, PTTG1IP / RFU, CAPN2 / Fold change vs veh, CAPN2 / RFU, MED14 / Fold change vs veh, MED14 / RFU, SNORA58 / Fold change vs veh, SNORA58 / RFU, C1orf63 / Fold change vs veh, C1orf63 / RFU, LRRFIP1 / Fold change vs veh, LRRFIP1 / RFU, NDUFAF7 / Fold change vs veh, NDUFAF7 / RFU, SLC12A2 / Fold change vs veh, SLC12A2 / RFU, IBTK / Fold change vs veh, IBTK / RFU, ESF1 / Fold change vs veh, ESF1 / Fold change vs veh, TMEM50B / RFU, TAOK1 / Fold change vs veh, TAOK1 / RFU, ACBD3 / Fold change vs veh, ACBD3 / RFU, TMA16 / Fold change vs veh, TMA16 / RFU, RWDD3 / Fold change vs veh, RWDD3 / RFU, BCAT1 / Fold change vs veh, BCAT1 / RFU, EDEM3 / Fold change vs veh, EDEM3 / RFU, TMEM33 / Fold change vs veh, TMEM33 / RFU, WDR75 / Fold change vs veh, WDR75 / RFU, AHCTF1 / Fold change vs veh, AHCTF1 / RFU, TFRC / Fold change vs veh, TFRC / RFU, ZDHHC17 / Fold change vs veh, ZDHHC17 / RFU, NOM1 / Fold change vs veh, NOM1 / RFU, ARL8B / Fold change vs veh, ARL8B / RFU, ZBTB11 / Fold change vs veh, ZBTB11 / RFU, TAMM41 / Fold change vs veh, TAMM41 / RFU, KIAA1704 /// LOC100996395 / Fold change vs veh, KIAA1704 /// LOC100996395 / RFU, ING1 / Fold change vs veh, ING1 / RFU, TRMT61B / Fold change vs veh, TRMT61B / RFU, FUBP3 / Fold change vs veh, FUBP3 / RFU, TP53 / Fold change vs veh, TP53 / RFU, TNKS2 / Fold change vs veh, TNKS2 / RFU, ZFP14 / Fold change vs veh, ZFP14 / RFU, ACTR2 / Fold change vs veh, ACTR2 / RFU, PPP3R1 / Fold change vs veh, PPP3R1 / RFU, PIK3R1 / Fold change vs veh, PIK3R1 / RFU, HNRNPA1 / Fold change vs veh, HNRNPA1 / RFU, RNF170 / Fold change vs veh, RNF170 / RFU, ZNF28 / Fold change vs veh, ZNF28 / RFU, RNGTT / Fold change vs veh, RNGTT / RFU, OGT / Fold change vs veh, OGT / RFU, BRD1 / Fold change vs veh, BRD1 / RFU, MARS / Fold change vs veh, MARS / RFU, ZNF655 / Fold change vs veh, ZNF655 / RFU, FAHD1 / Fold change vs veh, FAHD1 / RFU, BDP1 / Fold change vs veh, BDP1 / RFU, LRRCC1 / Fold change vs veh, LRRCC1 / RFU, ARID1A / Fold change vs veh, ARID1A / RFU, ZNF146 / Fold change vs veh, ZNF146 / RFU, ZNF330 / Fold change vs veh, ZNF330 / RFU, GPN3 / Fold change vs veh, GPN3 / RFU, C9orf123 / Fold change vs veh, C9orf123 / RFU, N4BP2L2 / Fold change vs veh, N4BP2L2 / RFU, ARFIP1 / Fold change vs veh, ARFIP1 / RFU, FAM179B / Fold change vs veh, FAM179B / RFU, BCL10 / Fold change vs veh, BCL10 / RFU, UHRF1BP1L / Fold change vs veh, UHRF1BP1L / RFU, BET1 / Fold change vs veh, BET1 / RFU, CNOT2 / Fold change vs veh, CNOT2 / RFU, ZNF268 / Fold change vs veh, ZNF268 / Fold change vs veh, ZNF507 / RFU, DGCR2 / Fold change vs veh, DGCR2 / RFU, WDSUB1 / Fold change vs veh, WDSUB1 / Fold change vs veh, HSP90B1 /// MIR3652 / RFU, ADSS / Fold change vs veh, ADSS / RFU, GK / Fold change vs veh, GK / RFU, ZNF148 / Fold change vs veh, ZNF148 / RFU, TAF9 / Fold change vs veh, TAF9 / RFU, SLC1A5 / Fold change vs veh, SLC1A5 / RFU, SLMO2 / Fold change vs veh, SLMO2 / RFU, ABCC4 / Fold change vs veh, ABCC4 / RFU, LOC101060439 /// RAP1B / Fold change vs veh, LOC101060439 /// RAP1B / RFU, RFX7 / Fold change vs veh, RFX7 / RFU, GTPBP10 / Fold change vs veh, GTPBP10 / RFU, CNEP1R1 / Fold change vs veh, CNEP1R1 / RFU, BIVM-ERCC5 /// ERCC5 / Fold change vs veh, BIVM-ERCC5 /// ERCC5 / RFU, ILF3 / Fold change vs veh, ILF3 / RFU 11762660_at / Fold change /veh 11762660_at / RFU VCAN (11757783_s_at) / Fold change /veh VCAN (11757783_s_at) / RFU DDX43 (11728927_at) / Fold change /veh DDX43 (11728927_at) / RFU KRT8 (11758188_x_at) / Fold change /veh KRT8 (11758188_x_at) / RFU NKD1 (11759106_at) / Fold change /veh NKD1 (11759106_at) / RFU SRD5A1 (11742802_a_at) / Fold change /veh SRD5A1 (11742802_a_at) / RFU TPSAB1 /// TPSB2 (11721975_s_at) / Fold change /veh TPSAB1 /// TPSB2 (11721975_s_at) / RFU GSTM3 (11746129_a_at) / Fold change /veh GSTM3 (11746129_a_at) / RFU IL23R (11737362_x_at) / Fold change /veh IL23R (11737362_x_at) / RFU TMEM51 (11727254_a_at) / Fold change /veh TMEM51 (11727254_a_at) / RFU PIWIL2 (11732686_x_at) / Fold change /veh PIWIL2 (11732686_x_at) / RFU ORM1 (11744905_x_at) / Fold change /veh ORM1 (11744905_x_at) / RFU CCDC152 (11743942_at) / Fold change /veh CCDC152 (11743942_at) / RFU ECM1 (11717891_a_at) / Fold change /veh ECM1 (11717891_a_at) / RFU IL23R (11748794_a_at) / Fold change /veh IL23R (11748794_a_at) / RFU TNFAIP8L3 (11732012_x_at) / Fold change /veh TNFAIP8L3 (11732012_x_at) / RFU MBOAT4 (11741988_at) / Fold change /veh MBOAT4 (11741988_at) / RFU 11764193_at / Fold change /veh 11764193_at / RFU TMEM53 (11763286_at) / Fold change /veh TMEM53 (11763286_at) / RFU MAGEB2 (11727129_at) / Fold change /veh MAGEB2 (11727129_at) / RFU TMEM200A (11744735_a_at) / Fold change /veh TMEM200A (11744735_a_at) / RFU CCDC152 (11751479_a_at) / Fold change /veh CCDC152 (11751479_a_at) / RFU FAM211A (11726209_a_at) / Fold change /veh FAM211A (11726209_a_at) / RFU RGS16 (11746705_a_at) / Fold change /veh RGS16 (11746705_a_at) / RFU VCAN (11755009_s_at) / Fold change /veh VCAN (11755009_s_at) / RFU RHOB (11743442_s_at) / Fold change /veh RHOB (11743442_s_at) / RFU RGS16 (11720943_a_at) / Fold change /veh RGS16 (11720943_a_at) / RFU RGS16 (11720944_at) / Fold change /veh RGS16 (11720944_at) / RFU, VPS4B / Fold change vs veh, VPS4B / RFU, CREB1 / Fold change vs veh, CREB1 / RFU, DNAJC13 / Fold change vs veh, DNAJC13 / RFU, GNAQ / Fold change vs veh, GNAQ / RFU, CDK5R1 / Fold change vs veh, CDK5R1 / RFU, ZRANB3 / Fold change vs veh, ZRANB3 / RFU, CUL4A / Fold change vs veh, CUL4A / RFU, CCNY / Fold change vs veh, CCNY / RFU, UFL1 / Fold change vs veh, UFL1 / RFU, COG3 / Fold change vs veh, COG3 / RFU, DIAPH2 / Fold change vs veh, DIAPH2 / RFU, SKA2 / Fold change vs veh, SKA2 / RFU, AFF3 / Fold change vs veh, AFF3 / RFU, LMF1 / Fold change vs veh, LMF1 / RFU, IPO11 / Fold change vs veh, IPO11 / RFU, DFFB / Fold change vs veh, DFFB / RFU, FOXP1 / Fold change vs veh, FOXP1 / RFU, CARD8 / Fold change vs veh, CARD8 / RFU, STRN3 / Fold change vs veh, STRN3 / RFU, ADK / Fold change vs veh, ADK / RFU, RASSF2 / Fold change vs veh, RASSF2 / RFU, WIPF1 / Fold change vs veh, WIPF1 / RFU, LARP1B / Fold change vs veh, LARP1B / RFU, RASA1 / Fold change vs veh, RASA1 / RFU, RB1 / Fold change vs veh, RB1 / RFU, PPFIA1 / Fold change vs veh, PPFIA1 / RFU, MAT2A / Fold change vs veh, MAT2A / RFU, CCT5 / Fold change vs veh, CCT5 / RFU, WDR92 / Fold change vs veh, WDR92 / RFU, CUX1 / Fold change vs veh, CUX1 / RFU, TTC7A / Fold change vs veh, TTC7A / RFU, TMEM135 / Fold change vs veh, TMEM135 / RFU, DEPTOR / Fold change vs veh, DEPTOR / RFU, CPM / Fold change vs veh, CPM / RFU, DNAJB6 / Fold change vs veh, DNAJB6 / RFU, CACNA2D3 / Fold change vs veh, CACNA2D3 / RFU, DTX4 / Fold change vs veh, DTX4 / RFU, TFCP2 / Fold change vs veh, TFCP2 / RFU, GMCL1 /// GMCL1P1 / Fold change vs veh, GMCL1 /// GMCL1P1 / RFU, AEBP2 / Fold change vs veh, AEBP2 / RFU, SNHG1 /// SNORD22 /// SNORD25 /// SNORD26 /// SNORD27 /// SNORD28 /// SNORD29 /// SNORD31 / Fold change vs veh, SNHG1 /// SNORD22 /// SNORD25 /// SNORD26 /// SNORD27 /// SNORD28 /// SNORD29 /// SNORD31 / Fold change (Aza/veh), C12orf56 (ProbeSet 11735607_a_at) / Fold change (ACY-1035/veh), C12orf56 (ProbeSet 11735607_a_at) / Fold change (Aza/veh), FGFR1OP (ProbeSet 11751329_s_at) / Fold change (ACY-1035/veh), FGFR1OP (ProbeSet 11751329_s_at) / Fold change (Aza/veh), VPS36 (ProbeSet 11739960_a_at) / Fold change (ACY-1035/veh), VPS36 (ProbeSet 11739960_a_at) / RFU SYPL1 (11715823_x_at) / Fold change /veh SYPL1 (11715823_x_at) / RFU IGFBP7 (11715501_s_at) / Fold change /veh IGFBP7 (11715501_s_at) / RFU REEP3 (11722064_at) / Fold change /veh REEP3 (11722064_at) / RFU IGLL1 (11728026_x_at) / Fold change /veh IGLL1 (11728026_x_at): dose or concentration left out as unconfirmed
Details: ProbeSet 11718569_a_at; LIST D

## Nc1ccc(-c2cccs2)cc1NC(=O)c1ccc2c(c1)cc(C1CC1)n2CCN1CCOCC1 [ACY-1035]
  RFU, WIPF1: 108.27 RFU
